Test results reported in patent US9113629B2, “4-amino-6-(4-substituted-phenyl)-picolinates and 6-amino-2-(4-substituted-phenyl)-pyrimidine-4-carboxylates and their use as herbicides” (DOW AGROSCIENCES LLC, priority 2013, dated 2015).
Like-named read-outs stand apart in the source and are kept apart here.

Tests used:
[1] = tested on: Key Broadleaf Weed and Crop Species; experiment: Post-emergent Test II herbicidal activity (Table 5); format: in vivo; details: post-emergence, 336 h, 14 days after application; for pest or weed control at 140 g/ha: 140 g ai/ha
Procedure: (§1) Post-emergent Test II: Seeds or nutlets of the desired test plant species were planted in Sun Gro Metro-Mix® 360 planting mixture, which typically has a pH of 6.0 to 6.8 and an organic matter content of about 30 percent, in plastic pots with a surface area of 64 square centimeters. When required to ensure good germination and healthy plants, a fungicide treatment and/or other chemical or physical treatment was applied. The plants were grown for 7-21 d in a greenhouse with an approximate 15 h photoperiod which was maintained at about 23-29° C. during the day and 22-28° C. during the night. Nutrients and water were added on a regular basis and supplemental lighting was provided with overhead metal halide 1000-Watt lamps as necessary. The plants were employed for testing when they reached the first or second true leaf stage.
(§2) A weighed amount, determined by the highest rate to be tested, of each test compound was placed in a 25 mL glass vial and was dissolved in 4 mL of a 97:3 v/v mixture of acetone and DMSO to obtain concentrated stock solutions. […] The concentrated stock solutions obtained were diluted with 20 mL of an aqueous mixture containing acetone, water, isopropyl alcohol, DMSO. Atplus 411F crop oil concentrate, and Triton® X-155 surfactant in a 48.5:39:10:1.5:1.0:0.02 v/v ratio to obtain spray solutions containing the highest application rates. Additional application rates were obtained by serial dilution of 12 mL of the high rate solution into a solution containing 2 mL of 97:3 v/v mixture of acetone and DMSO and 10 mL of an aqueous mixture containing acetone, water, isopropyl alcohol, DMSO, Atplus 411F crop oil concentrate, and Triton X-155 surfactant in a 48.5:39:10:1.5:1.0:0.02 v/v ratio to obtain ½×, ¼×, ⅛× and 1/16× rates of the high rate. Compound requirements are based upon a 12 mL application volume at a rate of 187 liters per hectare (L/ha). Formulated compounds were applied to the plant material with an overhead Mandel track sprayer equipped with 8002E nozzles calibrated to deliver 187 L/ha over an application area of 0.503 square meters at a spray height of 18 inches (43 cm) above the average plant canopy height. Control plants were sprayed in the same manner with the solvent blank.
(§3) The treated plants and control plants were placed in a greenhouse as described above and watered by subirrigation to prevent wash-off of the test compounds. After 14 d, the condition of the test plants as compared with that of the untreated plants was determined visually and scored on a scale of 0 to 100 percent where 0 corresponds to no injury and 100 corresponds to complete kill.

[2] = tested on: Key Grass and Sedge Weeds as well as Grass Crops; experiment: Post-emergent Test II herbicidal activity (Table 6); format: in vivo; details: post-emergence, 336 h; for pest or weed control at 140 g/ha: application rate 140 g ai/ha; for pest or weed control at 70 g/ha: application rate 70 g ai/ha
Procedure: as §1, §2, §3

[3] = ABUTH: velvetleaf (Abutilon theophrasti), post-emergent, read-out: Visual Growth Reduction (%) 14 Days After Application ABUTH
[4] = AMARE: redroot pigweed (Amaranthus retroflexus), post-emergent, read-out: Visual Growth Reduction (%) 14 Days After Application AMARE
[5] = BRSNN: oilseed-rape, canola (Brassica napus), post-emergent, read-out: Visual Growth Reduction (%) 14 Days After Application BRSNN
[6] = CHEAL: lambsquarters (Chenopodium album), post-emergent, read-out: Visual Growth Reduction (%) 14 Days After Application CHEAL
[7] = EPHHL: wild poinsettia (Euphorbia heterophylla), post-emergent, read-out: Visual Growth Reduction (%) 14 Days After Application EPHHL
[8] = HELAN: sunflower (Helianthus annuus), post-emergent, read-out: Visual Growth Reduction (%) 14 Days After Application HELAN
[9] = VIOTR: wild pansy (Viola tricolor), post-emergent, read-out: Visual Growth Reduction (%) 14 Days After Application VIOTR
[10] = Triticum aestivum, TRZSS (wheat), read-out: Visual Growth Reduction (%) 14 Days After Application, TRZSS
[11] = CYPES: yellow nutsedge (Cyperus esculentus), read-out: Visual Growth Reduction (%) 14 Days After Application, CYPES
[12] = DIGSA: crabgrass (Digitaria sanguinalis), read-out: Visual Growth Reduction (%) 14 Days After Application, DIGSA
[13] = ECHCG: barnyardgrass (Echinochloa crus-galli), read-out: Visual Growth Reduction (%) 14 Days After Application, ECHCG
[14] = ORYSA: rice (Oryza sativa), read-out: Visual Growth Reduction (%) 14 Days After Application, ORYSA
[15] = SETFA: giant foxtail (Setaria faberi), read-out: Visual Growth Reduction (%) 14 Days After Application, SETFA
[16] = SORVU: grain sorghum (Sorghum vulgare), read-out: Visual Growth Reduction (%) 14 Days After Application, SORVU
[17] = ZEAMX: maize, corn (Zea mays), read-out: Visual Growth Reduction (%) 14 Days After Application, ZEAMX

Nc1cc(-c2ccc(OC(F)F)cc2)nc(C(=O)O)c1Cl [Compound 10]
0 to 29%: pest or weed control at 140 g/ha [1, 9] | pest or weed control at 140 g/ha [2, 11] | pest or weed control at 140 g/ha [2, 14]
95 to 100%: pest or weed control at 140 g/ha [1, 3] | pest or weed control at 140 g/ha [1, 4] | pest or weed control at 140 g/ha [1, 7] | pest or weed control at 140 g/ha [2, 15]
60 to 74%: pest or weed control at 140 g/ha [1, 5] | pest or weed control at 140 g/ha [2, 10] | pest or weed control at 140 g/ha [2, 17]
85 to 94%: pest or weed control at 140 g/ha [1, 8] | pest or weed control at 140 g/ha [2, 13]
75 to 84%: pest or weed control at 140 g/ha [1, 6] | pest or weed control at 140 g/ha [2, 12] | pest or weed control at 140 g/ha [2, 16]
170.4 to 172.1 °C: melting point

C=Cc1c(C(=O)OC)nc(-c2ccc(I)cc2)c(F)c1N [Compound 139, methyl 4-amino-5-fluoro-6-(4-iodophenyl)-3-vinylpicolinate]
95 to 96 °C: melting point

C#Cc1ccc(-c2nc(C(=O)O)c(Cl)c(N)c2C)cc1F [Compound 6, 4-Amino-3-chloro-6-(4-ethynyl-3-fluorophenyl)-5-methylpicolinic acid]
175 to 176.5 °C: melting point

C=Cc1c(N)nc(-c2ccc(I)cc2)nc1C(=O)OC [Compound 164, methyl 6-amino-2-(4-iodophenyl)-5-vinylpyrimidine-4-carboxylate]
142 to 144 °C: melting point

COC(=O)c1nc(-c2cc(F)ccc2F)c(F)c(N)c1Cl [Compound 189]
85 to 94%: pest or weed control at 70 g/ha ([1]; CHEAL: lambsquarters (Chenopodium album), 70 g ai/ha, post-emergent, read-out: Visual Growth Reduction (%) 14 Days After Application CHEAL) | pest or weed control at 140 g/ha [1, 6] | pest or weed control at 70 g/ha ([1]; HELAN: sunflower (Helianthus annuus), 70 g ai/ha, post-emergent, read-out: Visual Growth Reduction (%) 14 Days After Application HELAN) | pest or weed control at 140 g/ha [1, 8]
95 to 100%: pest or weed control at 70 g/ha ([1]; AMARE: redroot pigweed (Amaranthus retroflexus), 70 g ai/ha, post-emergent, read-out: Visual Growth Reduction (%) 14 Days After Application AMARE) | pest or weed control at 140 g/ha [1, 4]
45 to 59%: pest or weed control at 70 g/ha ([1]; BRSNN: oilseed-rape, canola (Brassica napus), 70 g ai/ha, post-emergent, read-out: Visual Growth Reduction (%) 14 Days After Application BRSNN)
60 to 74%: pest or weed control at 140 g/ha [1, 5]
0 to 29%: pest or weed control at 70 g/ha ([1]; EPHHL: wild poinsettia (Euphorbia heterophylla), 70 g ai/ha, post-emergent, read-out: Visual Growth Reduction (%) 14 Days After Application EPHHL) | pest or weed control at 140 g/ha [1, 7] | pest or weed control at 140 g/ha [1, 9] | pest or weed control at 70 g/ha [2, 10] | pest or weed control at 140 g/ha [2, 10] | pest or weed control at 70 g/ha [2, 11] | pest or weed control at 140 g/ha [2, 11] | pest or weed control at 70 g/ha [2, 12] | pest or weed control at 140 g/ha [2, 12] | pest or weed control at 70 g/ha [2, 14] | pest or weed control at 140 g/ha [2, 14] | pest or weed control at 70 g/ha [2, 15] | pest or weed control at 140 g/ha [2, 15] | pest or weed control at 70 g/ha [2, 16] | pest or weed control at 140 g/ha [2, 16] | pest or weed control at 70 g/ha [2, 17] | pest or weed control at 140 g/ha [2, 17]
75 to 84%: pest or weed control at 70 g/ha ([1]; ABUTH: velvetleaf (Abutilon theophrasti), 70 g ai/ha, post-emergent, read-out: Visual Growth Reduction (%) 14 Days After Application ABUTH) | pest or weed control at 140 g/ha [1, 3]

COc1c(N)nc(-c2ccc(C(F)(F)F)c(F)c2)nc1C(=O)O [Compound 63]
85 to 94%: pest or weed control at 140 g/ha [1, 3] | pest or weed control at 140 g/ha [1, 5] | pest or weed control at 70 g/ha ([1]; CHEAL: lambsquarters (Chenopodium album), application rate 70 g ai/ha, read-out: Visual Growth Reduction (%) 14 Days After Application, CHEAL) | pest or weed control at 140 g/ha [1, 8] | pest or weed control at 70 g/ha ([1]; HELAN: sunflower (Helianthus annuus), application rate 70 g ai/ha, read-out: Visual Growth Reduction (%) 14 Days After Application, HELAN)
60 to 74%: pest or weed control at 70 g/ha ([1]; ABUTH: velvetleaf (Abutilon theophrasti), application rate 70 g ai/ha, read-out: Visual Growth Reduction (%) 14 Days After Application, ABUTH) | pest or weed control at 70 g/ha ([1]; AMARE: redroot pigweed (Amaranthus retroflexus), application rate 70 g ai/ha, read-out: Visual Growth Reduction (%) 14 Days After Application, AMARE) | pest or weed control at 70 g/ha [2, 10] | pest or weed control at 140 g/ha [2, 10] | pest or weed control at 70 g/ha [2, 12] | pest or weed control at 140 g/ha [2, 12] | pest or weed control at 70 g/ha [2, 17] | pest or weed control at 140 g/ha [2, 17]
30 to 44%: pest or weed control at 140 g/ha [2, 16]
75 to 84%: pest or weed control at 140 g/ha [1, 4] | pest or weed control at 70 g/ha ([1]; BRSNN: oilseed-rape, canola (Brassica napus), application rate 70 g ai/ha, read-out: Visual Growth Reduction (%) 14 Days After Application, BRSNN) | pest or weed control at 70 g/ha ([1]; VIOTR: wild pansy (Viola tricolor), application rate 70 g ai/ha, read-out: Visual Growth Reduction (%) 14 Days After Application, VIOTR) | pest or weed control at 70 g/ha [2, 13]
0 to 29%: pest or weed control at 70 g/ha [2, 14] | pest or weed control at 140 g/ha [2, 14] | pest or weed control at 70 g/ha [2, 16]
95 to 100%: pest or weed control at 140 g/ha [1, 6] | pest or weed control at 140 g/ha [1, 7] | pest or weed control at 70 g/ha ([1]; EPHHL: wild poinsettia (Euphorbia heterophylla), application rate 70 g ai/ha, read-out: Visual Growth Reduction (%) 14 Days After Application, EPHHL) | pest or weed control at 140 g/ha [1, 9] | pest or weed control at 140 g/ha [2, 13] | pest or weed control at 140 g/ha [2, 15]

COc1c(N)nc(-c2ccccc2)nc1C(=O)O [Compound 207]
130 to 132 °C: melting point
